Measurements reported in BindingDB's records for doi:10.1021/jm970059p (University of Illinois At Chicago, 1998).

Assay: Inhibition of [3H]-TCP binding to PCP receptor obtained from tissue homogenate preparation of fresh whole rat brain minus cerebellum

SMILES | IC50 [µM]
c1ccc2c(c1)C1CCC2(N2CCCCC2)CC1 [1-Tricyclo[6.2.2.0*2,7*]dodeca-2(7),3,5-trien-1-yl-piperidine] | 118
c1ccc2c(c1)C1CCCCC21N1CCCCC1 (stereo not drawn) [1-(1,3,4,8b-Tetrahydro-2H-biphenylen-4a-yl)-piperidine] | 4.27
c1ccc2c(c1)C1CCC2(N2CCCCC2)C1 (stereo not drawn) [1-(3,4-Dihydro-2H-1,4-methano-naphthalen-1-yl)-piperidine] | 107
